Here are results for one compound from ChEMBL document CHEMBL6096664, “Discovery of novel KSP-targeting PROTACs with potent antitumor effects in vitro and in vivo” (Eur J Med Chem, 2025).

Assay [1] concerns HCT-116. The assay is described as follows: Induction of apoptosis in human HCT-116 cells assessed as viable cells at 10 nM incubated for 48 hrs by Annexin V-FITC/PI staining based flow cytometry analysis (reference value: 94.31 %). The format is functional. The note with it: read-out: Activity. Background: A flow cytometer gives signals particle by particle.
Assay [2] concerns HCT-116. The assay is described as follows: Antitumor activity against human HCT-116 cells xenografted in female BALB/c nu/nu mouse assessed as reduction in tumor volume at 15 mg/kg, ip measured every 2 days for 14 days relative to control. Particulars: time 14 day. The arrangement: scale not given: the % may be the effect or the level left. The class given is functional. On the technique in general: Xenograft models place foreign cells or tissue in a host animal.

The subject of the next assay is MDA-MB-231. The assay is described as follows: Antiproliferative activity against human MDA-MB-231 cells assessed as inhibition of cell proliferation measured after 72 hrs by CCK8 assay. The format is functional, cell-based. The note with it: MDA-MB-231, 72 h. Background: Formazan colour is commonly taken as a measure of viable cells.
Assay [3] deals with Protein cereblon/Kinesin-like protein KIF11 (Homo sapiens, UniProt P52732+Q96SW2). The assay is described as follows: PROTAC activity at CRBN/KSP in human HCT-116 cells assessed as induction of KSP degradation incubated for 48 hrs by Western blot analysis. The format is cell-based.
The next assay relates to A549. Kind of assay: Antiproliferative activity against human A549 cells assessed as inhibition of cell proliferation measured after 72 hrs by CCK8 assay. The class given is functional, cell-based. The note with it: A549, 72 h.
Assay [4] deals with HCT-116. Kind of assay: Induction of apoptosis in human HCT-116 cells assessed as necrotic cells at 10 nM incubated for 48 hrs by Annexin V-FITC/PI staining based flow cytometry analysis (reference value: 1.31 %). The class given is functional.
Assay [5] relates to HCT-116. The assay is described as follows: Antitumor activity against human HCT-116 cells xenografted in female BALB/c nu/nu mouse assessed as reduction in tumor weight at 15 mg/kg, ip measured every 2 days for 14 days relative to control. The format is functional. Particulars: time 14 day. The arrangement: scale not given: the % may be the effect or the level left.
Assay [6] has as its target T1, Kinesin-like protein KIF11 (Homo sapiens, UniProt P52732).
T1 sequence (P52732 whole entry): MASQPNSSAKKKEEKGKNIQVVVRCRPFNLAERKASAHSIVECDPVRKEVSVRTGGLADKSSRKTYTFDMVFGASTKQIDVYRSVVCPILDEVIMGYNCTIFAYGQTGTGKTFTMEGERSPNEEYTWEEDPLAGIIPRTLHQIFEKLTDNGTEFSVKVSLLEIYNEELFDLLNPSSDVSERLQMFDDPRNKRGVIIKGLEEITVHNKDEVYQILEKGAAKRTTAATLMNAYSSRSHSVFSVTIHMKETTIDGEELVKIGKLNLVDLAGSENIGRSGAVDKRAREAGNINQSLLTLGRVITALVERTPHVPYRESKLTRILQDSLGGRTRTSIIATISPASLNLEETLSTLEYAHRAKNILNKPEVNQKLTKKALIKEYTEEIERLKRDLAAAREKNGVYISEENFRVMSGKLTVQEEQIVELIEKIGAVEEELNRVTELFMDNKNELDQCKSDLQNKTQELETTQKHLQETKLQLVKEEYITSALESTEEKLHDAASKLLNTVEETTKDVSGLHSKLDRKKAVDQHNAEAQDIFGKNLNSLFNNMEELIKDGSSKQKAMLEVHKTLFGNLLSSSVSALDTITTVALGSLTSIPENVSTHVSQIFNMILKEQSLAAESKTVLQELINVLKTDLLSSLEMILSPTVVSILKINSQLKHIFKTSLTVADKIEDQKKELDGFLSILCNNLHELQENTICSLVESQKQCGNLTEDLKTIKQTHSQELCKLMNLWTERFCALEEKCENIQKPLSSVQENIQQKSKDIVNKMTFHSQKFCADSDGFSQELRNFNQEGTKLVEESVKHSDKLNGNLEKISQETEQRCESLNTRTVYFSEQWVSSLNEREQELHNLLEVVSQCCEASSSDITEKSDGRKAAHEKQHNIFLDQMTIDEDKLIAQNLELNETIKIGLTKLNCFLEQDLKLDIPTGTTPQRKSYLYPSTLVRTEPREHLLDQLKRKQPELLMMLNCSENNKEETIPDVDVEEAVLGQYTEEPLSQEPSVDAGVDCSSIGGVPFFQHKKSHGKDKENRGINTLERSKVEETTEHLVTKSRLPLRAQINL
The assay is described as follows: Inhibition of KSP (unknown origin) ATPase activity preincubated for 30 mins followed by ATP addition and measured after 15 mins by Kinase-Glo Plus reagent based luminescence analysis.

The IC50 is the midpoint of a concentration-inhibition curve. As usually defined, the DC50 is the concentration at which degradation of the target reaches its halfway point. As for `COc1ccc(C2(SC[C@H](N)C(=O)NCCCCCCCCNC(=O)COc3cccc4c3C(=O)N(C3CCC(=O)NC3=O)C4=O)c3ccccc3C=Cc3ccccc32)cc1` (some centres undefined), in the assay on HCT-116 [1], the viability at 0.01 µM turned out to be 57.9%. Besides, the Activity in the assay with HCT-116 [2] is 98%; in assay [3], “Dose-dependent-effect”; in the assay with HCT-116 [4] it was 13.67%; in the assay with HCT-116 [5], 99%. The IC50 came to 0.0354 µM in the assay on MDA-MB-231, 0.161 µM in the assay with A549 and 0.29 µM in assay [6]. The DC50 in assay [3] was 0.115 µM.
